Experiment [1] has as its system MV4;11 cells. Kind of experiment: Cell viability assay (CellTiter-Glo) in MV4;11 cells, alone or with gilteritinib. The conditions noted are these: Homo sapiens, read-out: MV4. The experiment is classed as cell-based. Background: In ATP-based viability assays light output follows the ATP content of the culture.
In experiment [2] the test system is MOLM-13 cells. Kind of experiment: Cell viability assay (CellTiter-Glo) in MOLM-13 cells, alone or with gilteritinib. The experiment is classed as cell-based. The conditions noted are these: Homo sapiens.
The mark [3] stands for this setting: MV4-11, 72 h, MV4;11 cells, compound alone (without gilteritinib), three days, CellTiter-Glo, 11 IC50.
Setting [4] is: MV4-11, 72 h, MV4;11 cells, compound with gilteritinib 10 nM, three days, CellTiter-Glo, 11 IC50 gilteritinib.
[5] abbreviates: MOLM-13, 72 h, MOLM-13 cells, compound alone (without gilteritinib), three days, CellTiter-Glo, read-out: MOLM-13 IC50.
[6] abbreviates: MOLM-13, 72 h, MOLM-13 cells, compound with gilteritinib 20 nM, three days, CellTiter-Glo, read-out: MOLM-13 IC50 gilteritinib.
The mark [7] stands for this setting: 72 h, MV4;11 cells, compound alone (without gilteritinib), three days, CellTiter-Glo, 11 IC50.
Setting [8] is: 72 h, MV4;11 cells, compound with gilteritinib 10 nM, three days, CellTiter-Glo, 11 IC50 gilteritinib.
[9] abbreviates: 72 h, MOLM-13 cells, compound alone (without gilteritinib), three days, CellTiter-Glo, read-out: MOLM-13 IC50.
[10] abbreviates: 72 h, MOLM-13 cells, compound with gilteritinib 20 nM, three days, CellTiter-Glo, read-out: MOLM-13 IC50 gilteritinib.

The structures appear in SMILES notation. Where two headings read alike, the source gives them in different places. A value given as a limit tells only on which side of the number the result lay.

Turning to `O=C1CCC(N2Cc3cc(OCCC(=O)N4CCC(n5cc(-c6cnc7ccccc7n6)cn5)CC4)ccc3C2=O)C(=O)N1` (centres unmarked) [GS-485, 3-(1-oxo-5-(3-oxo-3-(4-(4-(quinoxalin-2-yl)-1H-pyrazol-1-yl)piperidin-1-yl)propoxy)isoindolin-2-yl)piperidine-2,6-dione], the IC50 in experiment [1] (setting [3]), in experiment [1] (setting [4]), in experiment [2] (setting [5]) and in experiment [2] (setting [6]) was more than 1000 nM each time.

Consider `O=C1CCC(N2Cc3cc(OCCCN4CCC(n5cc(-c6cnc7ccccc7n6)cn5)CC4)ccc3C2=O)C(=O)N1` (centres unmarked) [GS-492, 3-(1-oxo-5-(3-(4-(4-(quinoxalin-2-yl)-1H-pyrazol-1-yl)piperidin-1-yl)propoxy)isoindolin-2-yl)piperidine-2,6-dione], for which the IC50 in experiment [1] (setting [3]), in experiment [1] (setting [4]), in experiment [2] (setting [5]) and in experiment [2] (setting [6]) was more than 1000 nM each time.

Consider `O=C1CCC(N2Cc3cc(OCCCCCC(=O)N4CCC(n5cc(-c6cnc7ccccc7n6)cn5)CC4)ccc3C2=O)C(=O)N1` (centres unmarked) [GS-493, 3-(1-oxo-5-((6-oxo-6-(4-(4-(quinoxalin-2-yl)-1H-pyrazol-1-yl)piperidin-1-yl)hexyl)oxy)isoindolin-2-yl)piperidine-2,6-dione], for which the IC50 in experiment [1] (setting [3]) is 10 to 100 nM; in experiment [1] (setting [4]), less than 10 nM; in experiment [2] (setting [5]) it was more than 1000 nM; in experiment [2] (setting [6]), less than 10 nM.

In the case of `COc1cccnc1-c1cnn([C@H]2C[C@H](CCCNc3ccc4c(c3)C(=O)N(C3CCC(=O)NC3=O)C4=O)C2)c1` (stereo partly drawn) [GS-494, 2-(2,6-Dioxopiperidin-3-yl)-5-((3-(trans-3-(4-(3-methoxypyridin-2-yl)-1H-pyrazol-1-yl)cyclobutyl)propyl)amino)isoindoline-1,3-dione], the IC50 was 10 to 100 nM in experiment [1] (setting [3]), less than 10 nM in experiment [1] (setting [4]), 10 to 100 nM in experiment [2] (setting [5]) and less than 10 nM in experiment [2] (setting [6]).

Turning to `O=C1CCC(N2Cc3cc(NC(=O)Cc4cccc(N5CCC(n6cc(-c7cnc8ccccc8n7)cn6)CC5)c4)ccc3C2=O)C(=O)N1` (centres unmarked) [GS-495, N-(2-(2,6-dioxopiperidin-3-yl)-1-oxoisoindolin-5-yl)-2-(3-(4-(4-(quinoxalin-2-yl)-1H-pyrazol-1-yl)piperidin-1-yl)phenyl)acetamide], the IC50 in experiment [1] (setting [3]), in experiment [1] (setting [4]), in experiment [2] (setting [5]) and in experiment [2] (setting [6]) was less than 10 nM in each case.

As for `O=C1CCC(N2C(=O)c3ccc(NCCCCCCn4cc(-c5ccccc5)cn4)cc3C2=O)C(=O)N1` (centres unmarked) [GS-496, 2-(2,6-dioxopiperidin-3-yl)-5-((6-(4-phenyl-1H-pyrazol-1-yl)hexyl)amino)isoindoline-1,3-dione], the IC50 was in the range of 100 to 1000 nM in experiment [1] (setting [7]), 10 to 100 nM in experiment [1] (setting [8]), 100 to 1000 nM in experiment [2] (setting [9]) and 10 to 100 nM in experiment [2] (setting [10]).

`Cc1cccc(-c2cnn(CCCCCCNc3ccc4c(c3)C(=O)N(C3CCC(=O)NC3=O)C4=O)c2)c1` (centres unmarked) [GS-497, 2-(2,6-dioxopiperidin-3-yl)-5-((6-(4-(m-tolyl)-1H-pyrazol-1-yl)hexyl)amino)isoindoline-1,3-dione]: the IC50 in experiment [1] (setting [3]) is 10 to 100 nM; in experiment [1] (setting [4]) it was less than 10 nM; in experiment [2] (setting [5]) it was 100 to 1000 nM; in experiment [2] (setting [6]), less than 10 nM.

With `Cc1cccc(-c2cnn(CCCCCCNc3ccc4c(c3)C(=O)N(C3CCC(=O)NC3=O)C4=O)c2)n1` (centres unmarked) [GS-498, 2-(2,6-dioxopiperidin-3-yl)-5-((6-(4-(6-methylpyridin-2-yl)-1H-pyrazol-1-yl)hexyl)amino)isoindoline-1,3-dione], the IC50 in experiment [1] (setting [3]) was in the range of 100 to 1000 nM; in experiment [1] (setting [4]) it was 10 to 100 nM; in experiment [2] (setting [5]), 100 to 1000 nM; in experiment [2] (setting [6]), 10 to 100 nM.

Regarding `Cc1cncc(-c2cnn(CCCCCCNc3ccc4c(c3)C(=O)N(C3CCC(=O)NC3=O)C4=O)c2)c1` (centres unmarked) [GS-499, 2-(2,6-dioxopiperidin-3-yl)-5-((6-(4-(5-methylpyridin-3-yl)-1H-pyrazol-1-yl)hexyl)amino)isoindoline-1,3-dione], the IC50 in experiment [1] (setting [3]) was more than 1000 nM; in experiment [1] (setting [4]), 100 to 1000 nM; in experiment [2] (setting [5]), more than 1000 nM; in experiment [2] (setting [6]), 100 to 1000 nM.

On to `O=C1CCC(N2Cc3cc(NC(=O)C(F)(F)c4cccc(N5CCC(n6cc(-c7cnc8ccccc8n7)cn6)CC5)c4)ccc3C2=O)C(=O)N1` (centres unmarked) [GS-500, N-(2-(2,6-dioxopiperidin-3-yl)-1-oxoisoindolin-5-yl)-2,2-difluoro-2-(3-(4-(4-(quinoxalin-2-yl)-1H-pyrazol-1-yl)piperidin-1-yl)phenyl)acetamide], for which the IC50 in experiment [1] (setting [3]), in experiment [1] (setting [4]), in experiment [2] (setting [5]) and in experiment [2] (setting [6]) was less than 10 nM each time.

Regarding `O=C1CCC(N2Cc3cc(NC(=O)Cc4cccc(N5CCC(c6ccccc6)CC5)c4)ccc3C2=O)C(=O)N1` (centres unmarked) [GS-501, N-(2-(2,6-Dioxopiperidin-3-yl)-1-oxoisoindolin-5-yl)-2-(3-(4-phenylpiperidin-1-yl)phenyl)acetamide], the IC50 in experiment [1] (setting [7]), in experiment [1] (setting [8]), in experiment [2] (setting [9]) and in experiment [2] (setting [10]) was less than 10 nM each time.

Take `Cc1nc2ccccc2nc1-c1cnn(CCCCCCNc2ccc3c(c2)C(=O)N(C2CCC(=O)NC2=O)C3=O)c1` (centres unmarked) [GS-502, 2-(2,6-Dioxopiperidin-3-yl)-5-((6-(4-(3-methylquinoxalin-2-yl)-1H-pyrazol-1-yl)hexyl)amino)isoindoline-1,3-dionee]: the IC50 lay within 100 to 1000 nM in experiment [1] (setting [3]), 10 to 100 nM in experiment [1] (setting [4]), 100 to 1000 nM in experiment [2] (setting [5]) and 10 to 100 nM in experiment [2] (setting [6]).

Turning to `O=C1CCC(N2C(=O)c3ccc(NCCCCCCn4cc(-c5cnc6ccc(Br)cc6n5)cn4)cc3C2=O)C(=O)N1` (centres unmarked) [GS-503, 5-((6-(4-(7-Bromoquinoxalin-2-yl)-1H-pyrazol-1-yl)hexyl)amino)-2-(2,6-dioxopiperidin-3-yl)isoindoline-1,3-dione], the IC50 in experiment [1] (setting [3]) is 10 to 100 nM; in experiment [1] (setting [4]) it was less than 10 nM; in experiment [2] (setting [5]), 100 to 1000 nM; in experiment [2] (setting [6]) it was 10 to 100 nM.

Take `O=C1CCC(N2C(=O)c3ccc(NCCCc4cccc(N5CCC(c6ccccc6)CC5)c4)cc3C2=O)C(=O)N1` (centres unmarked) [GS-504, 2-(2,6-Dioxopiperidin-3-yl)-5-((3-(3-(4-phenylpiperidin-1-yl)phenyl)propyl)amino)isoindoline-1,3-dione]: the IC50 in experiment [1] (setting [7]) was in the range of 100 to 1000 nM; in experiment [1] (setting [8]), 10 to 100 nM; in experiment [2] (setting [9]), 100 to 1000 nM; in experiment [2] (setting [10]) it was 10 to 100 nM.

In the case of `O=C1CCC(N2C(=O)c3ccc(NCCCc4cc(F)cc(N5CCC(c6ccccc6)CC5)c4)cc3C2=O)C(=O)N1` (centres unmarked) [GS-505, 2-(2,6-Dioxopiperidin-3-yl)-5-((3-(3-fluoro-5-(4-phenylpiperidin-1-yl)phenyl)propyl)amino)isoindoline-1,3-dione], the IC50 in experiment [1] (setting [7]) was 10 to 100 nM; in experiment [1] (setting [8]), 10 to 100 nM; in experiment [2] (setting [9]), 10 to 100 nM; in experiment [2] (setting [10]), less than 10 nM.

For the molecule `O=C1CCC(N2C(=O)c3ccc(NCCCc4ccc(F)c(N5CCC(c6ccccc6)CC5)c4)cc3C2=O)C(=O)N1` (centres unmarked) [GS-506, 2-(2,6-Dioxopiperidin-3-yl)-5-((3-(4-fluoro-3-(4-phenylpiperidin-1-yl)phenyl)propyl)amino)isoindoline-1,3-dione], the IC50 is more than 1000 nM in experiment [1] (setting [7]), more than 1000 nM in experiment [1] (setting [8]), more than 1000 nM in experiment [2] (setting [9]) and 100 to 1000 nM in experiment [2] (setting [10]).

On to `O=C1CCC(N2C(=O)c3ccc(NCCCc4cccc(N5CCC(c6ccccc6)CC5)c4F)cc3C2=O)C(=O)N1` (centres unmarked) [GS-507, 2-(2,6-Dioxopiperidin-3-yl)-5-((3-(2-fluoro-3-(4-phenylpiperidin-1-yl)phenyl)propyl)amino)isoindoline-1,3-dione], for which the IC50 is more than 1000 nM in experiment [1] (setting [7]), 100 to 1000 nM in experiment [1] (setting [8]), more than 1000 nM in experiment [2] (setting [9]) and 10 to 100 nM in experiment [2] (setting [10]).

For `O=C1CCC(N2Cc3c(CNC(=O)c4cccc(N5CCC(n6cc(-c7cnc8ccccc8n7)cn6)CC5)c4)cccc3C2=O)C(=O)N1` (centres unmarked) [GS-509, N-((2-(2,6-Dioxopiperidin-3-yl)-1-oxoisoindolin-4-yl)methyl)-3-(4-(4-(quinoxalin-2-yl)-1H-pyrazol-1-yl)piperidin-1-yl)benzamide], the IC50 in experiment [1] (MV4-11, 72 h, 11 IC50) was less than 10 nM; in experiment [1] (MV4-11, 72 h, 11 IC50 gilteritinib), less than 10 nM; in experiment [2] (MOLM-13, 72 h, read-out: MOLM-13 IC50), less than 10 nM; in experiment [2] (MOLM-13, 72 h, read-out: MOLM-13 IC50 gilteritinib) it was less than 10 nM.

As to `Cc1nn(CCCCCCNc2ccc3c(c2)C(=O)N(C2CCC(=O)NC2=O)C3=O)c(C)c1-c1cnc2ccccc2n1` (centres unmarked) [GS-510, 5-((6-(3,5-Dimethyl-4-(quinoxalin-2-yl)-1H-pyrazol-1-yl)hexyl)amino)-2-(2,6-dioxopiperidin-3-yl)isoindoline-1,3-dione], the IC50 in experiment [1] (setting [3]) was 100 to 1000 nM; in experiment [1] (setting [4]), less than 10 nM; in experiment [2] (setting [5]) it was more than 1000 nM; in experiment [2] (setting [6]), less than 10 nM.

As to `Cc1cccc2ncc(-c3cnn(CCCCCCNc4ccc5c(c4)C(=O)N(C4CCC(=O)NC4=O)C5=O)c3)nc12` (centres unmarked) [GS-511, 2-(2,6-Dioxopiperidin-3-yl)-5-((6-(4-(8-methylquinoxalin-2-yl)-1H-pyrazol-1-yl)hexyl)amino)isoindoline-1,3-dione], the IC50 in experiment [1] (setting [3]) was 100 to 1000 nM; in experiment [1] (setting [4]), 10 to 100 nM; in experiment [2] (setting [5]), 100 to 1000 nM; in experiment [2] (setting [6]) it was less than 10 nM.
